From patent US20130302442A1, “METHODS OF USING (4S,4AS,5AR,12AS)-4-DIMETHYLAMINO-3,10,12,12A-TETRAHYDROXY-7-[(METHOXY(METHYL)AMINO)-METHYL]-1,11-DIOXO-1,4,4A,5,5A,6,11,12A-OCTAHYDRO-NAPHTHACENE-2-CARBOXYLIC ACID AMIDE” (priority 2012, published 2013)
≈ marks a conversion by molar mass, not a printed value. Read-outs that look alike come from different tables or passages of the source.

Columns and labels:
S. haemolyticus = assay: In vitro MIC testing, antibacterial spectrum of activity; assay type: cell-based; conditions: S. haemolyticus (33 isolates)
P. granulosum = assay: as above; assay type: cell-based; conditions: P. granulosum [clinical isolates] (3 isolates)
[1] = system: Bacteroides thetaiotaomicron; assay: In vitro MIC testing against anaerobic bacteria; assay type: cell-based
Fusobacterium nucleatum = assay: In vitro MIC testing against anaerobic bacteria; assay type: cell-based; conditions: Fusobacterium nucleatum, ATCC25586
Bacteroides ovatus = assay: In vitro MIC testing against anaerobic bacteria; assay type: cell-based
Clostridium difficile = assay: In vitro MIC testing against anaerobic bacteria; assay type: cell-based
Clostridium perfringens = assay: microbe, parasite or virus in culture; assay type: cell-based
Bacteroides fragilis = assay: In vitro MIC testing against anaerobic bacteria; assay type: cell-based
E. faecium = assay: In vitro MIC testing, antibacterial spectrum of activity; assay type: cell-based; conditions: for MIC / MIC50 / MIC90: Enterococcus faecium; for MIC50: read-out: MIC50; for MIC90: read-out: MIC90
[2] = system: Streptococcus intermedius; assay: In vitro MIC testing against anaerobic bacteria; assay type: cell-based; conditions: ATCC27335; Streptococcus intermedius 1203, ATCC 27335
[3] = system: Streptococcus spp. [Group C]; assay: In vitro MIC testing, antibacterial spectrum of activity; assay type: cell-based; conditions: Streptococcus spp. [Group C] (30 isolates)
K. pneumoniae = assay: as above; assay type: cell-based
[4] = system: Prevotella melaninogenica; assay: In vitro MIC testing against anaerobic bacteria; assay type: cell-based
Bifidobacterium infantis = assay: In vitro MIC testing against anaerobic bacteria; assay type: cell-based; conditions: ATCC15702; Bifidobacterium infantis 3966, ATCC 15702
Propionibacterium acnes = assay: In vitro MIC testing against anaerobic bacteria; assay type: cell-based; conditions: Cutibacterium acnes
Bifidobacterium brevi = assay: In vitro MIC testing against anaerobic bacteria; assay type: cell-based; conditions: ATCC15698; Bifidobacterium brevi 3967, ATCC 15698
Lactobacillus casei = assay: In vitro MIC testing against anaerobic bacteria; assay type: cell-based; conditions: Lacticaseibacillus casei, ATCC393; Lactobacillus casei 1722, ATCC 393
Bacteroides vulgatus = assay: In vitro MIC testing against anaerobic bacteria; assay type: cell-based
[5] = system: Peptostreptococcus micros; assay: In vitro MIC testing against anaerobic bacteria; assay type: cell-based; conditions: Parvimonas micra
[6] = system: Fusobacterium necrophorum; assay: In vitro MIC testing against anaerobic bacteria; assay type: cell-based; conditions: Fusobacterium necrophorum, ATCC25286
S. pneumoniae = assay: In vitro MIC testing, antibacterial spectrum of activity; assay type: cell-based, Streptococcus pneumoniae
[7] = system: Lactobacillus acidophilus; assay: In vitro MIC testing against anaerobic bacteria; assay type: cell-based; conditions: Lactobacillus acidophilus 0681
Bifidobacterium bifidum = assay: In vitro MIC testing against anaerobic bacteria; assay type: cell-based; conditions: ATCC15696; Bifidobacterium bifidum 3965, ATCC 15696
Bifidobacterium longum = assay: In vitro MIC testing against anaerobic bacteria; assay type: cell-based; conditions: ATCC15707; Bifidobacterium longum 3968, ATCC 15707
S. agalactiae = assay: In vitro MIC testing, antibacterial spectrum of activity; assay type: cell-based
[8] = system: Peptostreptococcus anaerobius; assay: In vitro MIC testing against anaerobic bacteria; assay type: cell-based
E. coli = assay: In vitro MIC testing, antibacterial spectrum of activity; assay type: cell-based; conditions: Escherichia coli
Veillonella parvula = assay: In vitro MIC testing against anaerobic bacteria; assay type: cell-based; conditions: ATCC17745; Veillonella parvula 1272, ATCC 17745
Prevotella spp. = assay: In vitro MIC testing against anaerobic bacteria; assay type: cell-based
P. mirabilis = assay: In vitro MIC testing, antibacterial spectrum of activity; assay type: cell-based; conditions: P. mirabilis (30 isolates)
S. pyogenes = assay: as above; assay type: cell-based
Lactobacillus plantarum = assay: In vitro MIC testing against anaerobic bacteria; assay type: cell-based; conditions: Lactiplantibacillus plantarum, ATCC39268; Lactobacillus plantarum 2791, ATCC 39268
P. aeruginosa = assay: In vitro MIC testing, antibacterial spectrum of activity; assay type: cell-based; conditions: Pseudomonas aeruginosa; P. aeruginosa (11 isolates)
[9] = Klebsiella pneumoniae, K. pneumoniae (31 isolates)

CON(C)Cc1ccc(O)c2c1C[C@H]1C[C@H]3[C@H](N(C)C)C(O)=C(C(N)=O)C(=O)[C@@]3(O)C(O)=C1C2=O [The Active, (4S,4aS,5aR,12aS)-4-dimethylamino-3,10,12,12a-tetrahydroxy-7-[(methoxy(methyl)amino)-methyl]-1,11-dioxo-1,4,4a,5,5a,6,11,12a-octahydro-naphthacene-2-carboxylic acid amide]
MIC Range (S. haemolyticus): 0.12 to 2 µg/mL | MIC50 (S. haemolyticus; Staphylococcus haemolyticus, read-out: MIC50): 0.12 µg/mL (≈ 0.246 µM) | MIC90 (S. haemolyticus; Staphylococcus haemolyticus, read-out: MIC90): 2 µg/mL (≈ 4.1 µM) | MIC Range (P. granulosum): 1-1 μg/mL | MIC ([1]; Bacteroides thetaiotaomicron 3399): 0.25 µg/mL (≈ 0.513 µM) | MIC ([1]; Bacteroides thetaiotaomicron 3496): 16 µg/mL (≈ 32.8 µM) | MIC (Fusobacterium nucleatum): 0.25 µg/mL (≈ 0.513 µM) | MIC (Bacteroides ovatus): 0.25 µg/mL (≈ 0.513 µM) | MIC (Bacteroides ovatus; Bacteroides ovatus 3503, read-out: MIC): 8 µg/mL (≈ 16.4 µM) | MIC (Clostridium difficile; Clostridioides difficile): 0.12 µg/mL (≈ 0.246 µM) | MIC (Clostridium difficile; Clostridium difficile 3584): 0.12 µg/mL (≈ 0.246 µM) | MIC (Clostridium perfringens): 16 µg/mL (≈ 32.8 µM) | MIC (Clostridium perfringens; read-out: MIC, high MIC values): > 16 µg/mL | MIC (Bacteroides fragilis; Bacteroides fragilis 3374): 0.12 µg/mL (≈ 0.246 µM) | MIC (Bacteroides fragilis; Bacteroides fragilis 3479): 16 µg/mL (≈ 32.8 µM) | MIC Range (E. faecium; E. faecium [VRE] (30 isolates)): 0.12 to 32 µg/mL | MIC Range (E. faecium; E. faecium [VSE] (32 isolates)): 0.12 to 32 µg/mL | MIC Range (E. faecium; E. faecium [tetR] (6 isolates)): 8 to 32 µg/mL | MIC (E. faecium; E. faecium strain PBS # 965, tetM): 8 µg/mL (≈ 16.4 µM) | MIC (E. faecium; E. faecium strain PBS # 1323, tetK): 8 µg/mL (≈ 16.4 µM) | MIC (E. faecium; E. faecium strain PBS # 1324, tetO): 16 µg/mL (≈ 32.8 µM) | MIC50 (E. faecium; E. faecium [VRE] (30 isolates)): 2 µg/mL (≈ 4.1 µM) | MIC90 (E. faecium; E. faecium [VRE] (30 isolates)): 32 µg/mL (≈ 65.6 µM) | MIC50 (E. faecium; E. faecium [VSE] (32 isolates)): 0.5 µg/mL (≈ 1.03 µM) | MIC90 (E. faecium; E. faecium [VSE] (32 isolates)): 32 µg/mL (≈ 65.6 µM) | MIC [2]: 1 µg/mL (≈ 2.05 µM) | MIC Range [3]: 0.12 to 16 µg/mL | MIC50 ([3]; read-out: MIC50): 0.25 µg/mL (≈ 0.513 µM) | MIC90 ([3]; read-out: MIC90): 16 µg/mL (≈ 32.8 µM) | MIC Range (K. pneumoniae; K. pneumoniae [tetS] (7 isolates)): 16 to 64 µg/mL | MIC50 (K. pneumoniae; [9]): > 64 µg/mL | MIC90 (K. pneumoniae; [9]): > 64 µg/mL | MIC (K. pneumoniae; Klebsiella pneumoniae, K. pneumoniae strain PBS # 266, tetD): > 64 µg/mL | MIC ([4]; Prevotella melaninogenica 3437, read-out: MIC): 32 µg/mL (≈ 65.6 µM) | MIC ([4]; Prevotella melaninogenica 3443, read-out: MIC): 4 µg/mL (≈ 8.2 µM) | MIC (Bifidobacterium infantis): 0.5 µg/mL (≈ 1.03 µM) | MIC (Propionibacterium acnes): 0.25 µg/mL (≈ 0.513 µM) | MIC (Propionibacterium acnes; ATCC11829, Propionibacterium acnes 1286, ATCC 11829, read-out: MIC): 1 µg/mL (≈ 2.05 µM) | MIC (Propionibacterium acnes; P. acnes, summary of Table 1, read-out: minimum inhibitory concentration (MIC), relatively potent activity): ≤ 4 µg/mL | MIC (Bifidobacterium brevi): 1 µg/mL (≈ 2.05 µM) | MIC (Lactobacillus casei): 2 µg/mL (≈ 4.1 µM) | MIC (Bacteroides vulgatus; Bacteroides vulgatus 3494): 16 µg/mL (≈ 32.8 µM) | MIC (Bacteroides vulgatus; Phocaeicola vulgatus): 16 µg/mL (≈ 32.8 µM) | MIC [5]: 0.25 µg/mL (≈ 0.513 µM) | MIC ([5]; Peptostreptococcus micros 3545, read-out: MIC): 1 µg/mL (≈ 2.05 µM) | MIC [6]: 0.25 µg/mL (≈ 0.513 µM) | MIC Range (S. pneumoniae; S. pneumoniae [PSSP] (32 isolates)): ≦0.03-32 μg/mL | MIC Range (S. pneumoniae; S. pneumoniae [tetR] (5 isolates)): 4 to 32 µg/mL | MIC Range (S. pneumoniae; S. pneumoniae [tetS] (5 isolates)): ≦0.06-0.125 μg/mL | MIC50 (S. pneumoniae; Streptococcus pneumoniae, S. pneumoniae [PSSP] (32 isolates), read-out: MIC50): 0.12 µg/mL (≈ 0.246 µM) | MIC90 (S. pneumoniae; Streptococcus pneumoniae, S. pneumoniae [PSSP] (32 isolates), read-out: MIC90): 0.25 µg/mL (≈ 0.513 µM) | MIC (S. pneumoniae; Streptococcus pneumoniae, S. pneumoniae strain PBS # 511, tetM): 4 µg/mL (≈ 8.2 µM) | MIC [7]: 4 µg/mL (≈ 8.2 µM) | MIC (Bifidobacterium bifidum): 1 µg/mL (≈ 2.05 µM) | MIC (Bifidobacterium longum): 4 µg/mL (≈ 8.2 µM) | MIC Range (S. agalactiae; S. agalactiae (31 isolates)): 0.12 to 32 µg/mL | MIC Range (S. agalactiae; S. agalactiae [tetR] (7 isolates)): 16 to 32 µg/mL | MIC Range (S. agalactiae; S. agalactiae [tetS] (3 isolates)): 0.125 to 0.25 µg/mL | MIC (S. agalactiae; Streptococcus agalactiae, S. agalactiae strain PBS # 316, tetO): 32 µg/mL (≈ 65.6 µM) | MIC (S. agalactiae; Streptococcus agalactiae, S. agalactiae strain PBS # 897, tetM): 16 µg/mL (≈ 32.8 µM) | MIC90 (S. agalactiae; Streptococcus agalactiae, S. agalactiae (31 isolates), read-out: MIC90): 16 µg/mL (≈ 32.8 µM) | MIC ([8]; Peptostreptococcus anaerobius 3526): 2 µg/mL (≈ 4.1 µM) | MIC ([8]; Peptostreptococcus anaerobius 3531): 4 µg/mL (≈ 8.2 µM) | MIC (E. coli): > 64 µg/mL | MIC90 (E. coli): > 64 µg/mL | MIC (Veillonella parvula): 4 µg/mL (≈ 8.2 µM) | MIC (Prevotella spp.; Prevotella spp. 3564): 4 µg/mL (≈ 8.2 µM) | MIC (Prevotella spp.; Prevotella spp. 3568): 2 µg/mL (≈ 4.1 µM) | MIC Range (P. mirabilis): >64 µg/mL | MIC50 (P. mirabilis; Proteus mirabilis): > 64 µg/mL | MIC90 (P. mirabilis; Proteus mirabilis): > 64 µg/mL | MIC Range (S. pyogenes; S. pyogenes (32 isolates)): 0.12 to 16 µg/mL | MIC Range (S. pyogenes; S. pyogenes [tetR] (5 isolates)): 4 to 16 µg/mL | MIC Range (S. pyogenes; S. pyogenes [tetS] (5 isolates)): ≦0.06-0.25 μg/mL | MIC (S. pyogenes; Streptococcus pyogenes, S. pyogenes strain PBS # 330, tetO): 16 µg/mL (≈ 32.8 µM) | MIC (S. pyogenes; Streptococcus pyogenes, S. pyogenes strain PBS # 792, tetM): 4 µg/mL (≈ 8.2 µM) | MIC50 (S. pyogenes; Streptococcus pyogenes, S. pyogenes (32 isolates), read-out: MIC50): 0.12 µg/mL (≈ 0.246 µM) | MIC90 (S. pyogenes; Streptococcus pyogenes, S. pyogenes (32 isolates), read-out: MIC90): 8 µg/mL (≈ 16.4 µM) | MIC (Lactobacillus plantarum): 2 µg/mL (≈ 4.1 µM) | MIC50 (P. aeruginosa): > 64 µg/mL | MIC90 (P. aeruginosa): > 64 µg/mL
